For two compounds, IC50 results are on record in patent publication US20210070748A1, “INHIBITORS OF BRUTONS TYROSINE KINASE” (Pharmacyclics LLC, priority 2015, published 2021).

Common to all, as to type: biochemical
One assay addresses EGFR (Homo sapiens, UniProt P00533). The experiment in a line: Inhibition of a panel of kinases, in vitro HotSpot kinase assay: EGFR. To be noted: D-compounds panel data; 1 μM ATP. How it is done:
(§1) The degree of inhibition of a panel of kinases is determined using the in vitro HotSpot kinase assay (purified enzymes, ^33P-ATP, an appropriate substrate and 1 μM ATP).

In another assay the target is T1, ITK (Homo sapiens, UniProt Q08881).
T1 sequence (Q08881 1-620): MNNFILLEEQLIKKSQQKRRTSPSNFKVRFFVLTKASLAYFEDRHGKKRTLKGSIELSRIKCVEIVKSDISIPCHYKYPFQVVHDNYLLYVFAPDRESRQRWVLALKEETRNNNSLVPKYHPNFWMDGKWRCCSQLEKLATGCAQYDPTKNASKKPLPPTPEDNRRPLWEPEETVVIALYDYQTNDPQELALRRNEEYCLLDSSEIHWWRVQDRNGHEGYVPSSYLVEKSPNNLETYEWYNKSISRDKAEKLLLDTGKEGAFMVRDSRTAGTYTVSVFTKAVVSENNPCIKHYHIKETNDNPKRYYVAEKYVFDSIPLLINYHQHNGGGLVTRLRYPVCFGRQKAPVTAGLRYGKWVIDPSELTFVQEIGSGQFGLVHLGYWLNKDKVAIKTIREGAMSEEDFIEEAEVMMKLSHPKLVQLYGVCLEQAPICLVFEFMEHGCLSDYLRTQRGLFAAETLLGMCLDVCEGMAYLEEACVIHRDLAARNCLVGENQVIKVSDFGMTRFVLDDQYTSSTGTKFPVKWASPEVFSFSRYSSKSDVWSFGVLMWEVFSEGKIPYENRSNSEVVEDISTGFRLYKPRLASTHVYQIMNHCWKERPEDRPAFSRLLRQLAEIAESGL
The experiment in a line: Inhibition of a panel of kinases, in vitro HotSpot kinase assay: ITK. To be noted: D-compounds panel data; 1 μM ATP. As to the method: as §1

In another assay the target is LCK (Homo sapiens, UniProt P06239). Description: Inhibition of a panel of kinases, in vitro HotSpot kinase assay: LCK. To be noted: D-compounds panel data; 1 μM ATP; read-out: IC50 LCK.
Sequence of LCK (P06239 whole entry): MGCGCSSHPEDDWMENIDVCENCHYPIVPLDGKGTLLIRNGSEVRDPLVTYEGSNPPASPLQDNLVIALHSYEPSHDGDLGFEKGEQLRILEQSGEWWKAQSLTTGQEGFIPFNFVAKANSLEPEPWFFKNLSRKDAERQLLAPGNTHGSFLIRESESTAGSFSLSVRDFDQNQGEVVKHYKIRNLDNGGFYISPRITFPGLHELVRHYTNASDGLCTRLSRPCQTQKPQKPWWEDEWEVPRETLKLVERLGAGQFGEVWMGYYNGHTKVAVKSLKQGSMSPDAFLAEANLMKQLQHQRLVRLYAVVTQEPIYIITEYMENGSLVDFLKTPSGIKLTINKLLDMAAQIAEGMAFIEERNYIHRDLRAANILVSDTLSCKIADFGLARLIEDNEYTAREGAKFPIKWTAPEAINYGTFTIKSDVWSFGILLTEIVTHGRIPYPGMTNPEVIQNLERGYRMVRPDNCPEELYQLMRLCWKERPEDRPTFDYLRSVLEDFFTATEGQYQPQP
For a further assay, the target named is SRC (Homo sapiens, UniProt P12931). Description: Inhibition of a panel of kinases, in vitro HotSpot kinase assay: SRC. Particulars: D-compounds panel data; 1 μM ATP. As to the method: as §1
Sequence of SRC (P12931 whole entry): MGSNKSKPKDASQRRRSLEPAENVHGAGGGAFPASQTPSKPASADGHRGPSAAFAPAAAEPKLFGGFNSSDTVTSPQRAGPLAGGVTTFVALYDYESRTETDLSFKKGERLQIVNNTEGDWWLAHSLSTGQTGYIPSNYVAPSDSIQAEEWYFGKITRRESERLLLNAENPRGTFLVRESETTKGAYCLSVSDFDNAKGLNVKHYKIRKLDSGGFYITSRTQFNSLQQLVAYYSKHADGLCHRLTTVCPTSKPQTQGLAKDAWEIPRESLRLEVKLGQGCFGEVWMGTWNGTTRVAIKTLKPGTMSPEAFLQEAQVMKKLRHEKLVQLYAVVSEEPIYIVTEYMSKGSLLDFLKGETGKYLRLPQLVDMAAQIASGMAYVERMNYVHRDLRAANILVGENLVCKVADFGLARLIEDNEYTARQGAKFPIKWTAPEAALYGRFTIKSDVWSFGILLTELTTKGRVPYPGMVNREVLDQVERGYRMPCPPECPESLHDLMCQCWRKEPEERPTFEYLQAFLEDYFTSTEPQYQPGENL
A further assay has as its target T2, JAK3 (Homo sapiens, UniProt P52333).
T2 sequence (P52333 1-1124): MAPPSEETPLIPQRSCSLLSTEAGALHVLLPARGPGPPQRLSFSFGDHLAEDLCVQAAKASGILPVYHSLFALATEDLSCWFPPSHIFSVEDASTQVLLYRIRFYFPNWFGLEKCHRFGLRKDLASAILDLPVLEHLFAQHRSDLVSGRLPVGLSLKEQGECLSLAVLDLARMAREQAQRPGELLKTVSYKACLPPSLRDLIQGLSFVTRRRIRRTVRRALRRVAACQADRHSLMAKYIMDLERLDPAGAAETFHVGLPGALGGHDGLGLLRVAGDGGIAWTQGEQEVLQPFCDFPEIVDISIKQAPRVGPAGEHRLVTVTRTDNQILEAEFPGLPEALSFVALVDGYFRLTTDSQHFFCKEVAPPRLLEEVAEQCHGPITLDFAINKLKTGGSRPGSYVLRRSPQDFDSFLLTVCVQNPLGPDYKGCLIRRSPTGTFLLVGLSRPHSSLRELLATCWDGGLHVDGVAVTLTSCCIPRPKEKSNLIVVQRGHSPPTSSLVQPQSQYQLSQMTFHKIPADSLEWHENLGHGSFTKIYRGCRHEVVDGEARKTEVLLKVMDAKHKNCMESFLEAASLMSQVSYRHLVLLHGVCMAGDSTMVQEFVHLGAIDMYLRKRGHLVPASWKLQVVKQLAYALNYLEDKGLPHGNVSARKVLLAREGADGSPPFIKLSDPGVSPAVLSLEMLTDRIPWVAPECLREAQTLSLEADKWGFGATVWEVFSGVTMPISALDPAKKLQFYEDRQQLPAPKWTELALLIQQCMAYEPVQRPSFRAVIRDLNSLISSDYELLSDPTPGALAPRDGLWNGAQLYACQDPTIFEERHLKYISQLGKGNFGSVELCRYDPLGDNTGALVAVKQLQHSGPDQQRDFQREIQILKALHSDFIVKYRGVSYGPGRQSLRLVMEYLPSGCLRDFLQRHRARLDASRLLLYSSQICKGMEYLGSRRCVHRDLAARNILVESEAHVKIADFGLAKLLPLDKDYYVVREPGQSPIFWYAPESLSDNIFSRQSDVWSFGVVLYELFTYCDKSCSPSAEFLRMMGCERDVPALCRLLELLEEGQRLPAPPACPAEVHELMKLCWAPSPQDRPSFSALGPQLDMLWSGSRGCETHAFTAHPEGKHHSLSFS
Description: Inhibition of a panel of kinases, in vitro HotSpot kinase assay: JAK3. To be noted: D-compounds panel data; 1 μM ATP; read-out: IC50 JAK3.

pIC50: −log10 of the molar value.

One may read the pIC50 as the negative decadic logarithm of the IC50, by convention in mol/L.

Sequence of EGFR (P00533 25-1210): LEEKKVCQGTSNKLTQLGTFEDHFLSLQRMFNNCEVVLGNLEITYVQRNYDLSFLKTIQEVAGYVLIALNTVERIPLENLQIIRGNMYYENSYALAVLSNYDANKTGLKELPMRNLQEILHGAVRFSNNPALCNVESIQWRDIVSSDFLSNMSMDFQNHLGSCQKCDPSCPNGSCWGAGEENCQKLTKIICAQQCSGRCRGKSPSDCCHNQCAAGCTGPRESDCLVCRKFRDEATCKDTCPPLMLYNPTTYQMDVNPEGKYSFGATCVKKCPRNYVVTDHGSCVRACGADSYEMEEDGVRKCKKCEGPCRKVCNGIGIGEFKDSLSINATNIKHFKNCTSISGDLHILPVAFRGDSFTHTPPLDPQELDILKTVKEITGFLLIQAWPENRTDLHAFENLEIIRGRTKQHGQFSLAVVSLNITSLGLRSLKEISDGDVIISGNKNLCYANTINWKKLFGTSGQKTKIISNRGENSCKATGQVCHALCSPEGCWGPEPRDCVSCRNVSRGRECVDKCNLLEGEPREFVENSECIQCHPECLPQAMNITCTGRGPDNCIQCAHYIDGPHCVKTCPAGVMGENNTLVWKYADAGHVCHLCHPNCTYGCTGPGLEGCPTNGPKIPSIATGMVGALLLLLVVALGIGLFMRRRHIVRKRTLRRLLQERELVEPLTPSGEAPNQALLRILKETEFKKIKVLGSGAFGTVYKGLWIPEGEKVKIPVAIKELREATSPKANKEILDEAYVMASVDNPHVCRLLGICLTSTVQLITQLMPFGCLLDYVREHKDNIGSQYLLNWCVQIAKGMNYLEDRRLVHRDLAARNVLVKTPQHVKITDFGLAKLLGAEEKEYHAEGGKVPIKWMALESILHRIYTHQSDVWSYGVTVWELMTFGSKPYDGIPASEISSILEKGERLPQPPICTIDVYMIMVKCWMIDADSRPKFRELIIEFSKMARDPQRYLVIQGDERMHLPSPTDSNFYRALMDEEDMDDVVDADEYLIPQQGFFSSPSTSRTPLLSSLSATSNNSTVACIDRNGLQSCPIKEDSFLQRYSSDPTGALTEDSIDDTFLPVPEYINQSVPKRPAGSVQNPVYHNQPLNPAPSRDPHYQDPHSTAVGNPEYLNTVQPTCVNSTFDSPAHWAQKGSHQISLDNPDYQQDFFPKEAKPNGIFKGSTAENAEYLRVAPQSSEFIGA

Turning to `C[C@@H]1[C@H](NC(=O)c2cc(C(C)(C)C)n[nH]2)CCCN1c1cnc(C(N)=O)c(Nc2cnn(C)c2)n1` [Example D-244, 5-[(2R,3R)-3-(3-tert-butyl-1H-pyrazole-5-amido)-2-methylpiperidin-1-yl]-3-[(1-methyl-1H-pyrazol-4-yl)amino]pyrazine-2-carboxamide], the pIC50 on EGFR was 5.00 to 6.00; against ITK, 6.00 to 7.00; at LCK it was 6.00 to 7.00; against SRC, 7.00 to 8.00; on JAK3, 6.00 to 7.00.

In the case of `CCn1cc(Nc2nc(N3CCC[C@@H](NC(=O)c4ccc(C5CC5)cc4)[C@H]3C)cnc2C(N)=O)cn1` [Example D-273, 5-[(2R,3R)-3-(4-cyclopropylbenzamido)-2-methylpiperidin-1-yl]-3-[(1-ethyl-1H-pyrazol-4-yl)amino]pyrazine-2-carboxamide], the pIC50 against EGFR is 6.00 to 7.00; at ITK, 6.00 to 7.00; on LCK it was 6.00 to 7.00; against SRC, 6.00 to 7.00; at JAK3, 5.00 to 6.00.
